Broadly, the IC50 is the concentration at which inhibition is half-maximal.

The structures appear in SMILES notation.

The target of one assay is CDK6/CyclinD3 (Homo sapiens (Human), UniProt Q00534). Nature of the assay: CDK kinase inhibitory activity, ADP-Glo Kinase Assay, CDK6/CyclinD3. Format: biochemical. To be noted: for CDK1/CDK6: ratio of IC50s, selectivity for CDK6 over CDK1. How it is done:
(§1) Measurement of CDK kinase inhibitory activity of the compounds of this disclosure.
(§2) In vitro inhibitory effect of the compounds of the disclosure on CDK (CDK1, CDK4 and CDK6) kinase activity was tested by the following method.
(§3) 1.1 Instrument and Kit Information
(§4) 1.2 Experimental Preparation • 1.2.1 Preparation of Kinase Reaction Buffer I: The 5×Reaction Buffer A (Promega; V307A-C) provided in the kit was mixed and diluted with MILLI-Q® H2O and 0.1 M DTT (dithiothreitol) to give 4× kinase buffer, and then MILLI-Q® H2O was further added to finally formulate the solution into 1× Kinase buffer.
(§5) 1 μl of 10 mM standard substance stock solution was taken and added to 9 μl of kinase reaction buffer I and mixed well; then 90 μl of kinase reaction buffer I was added and mixed well; then 100 μl of kinase reaction buffer I was added and mixed well. The final concentration was 50 μM. • b. 40 μl of kinase reaction buffer II was added into B2 to B10 of a 96-well plate, and 50 μl of the above solution was added into B1; • c. 10 μl of solution was taken from well B1, added into B2, and mixed well; then 10 μl of the resulting solution was taken and added into B3, and dilution was carried out in sequence to B9, so as to obtain control solutions that are diluted by 5-fold sequentially. • (2) Preparation of test compound solution: • a. Test compound solutions at a certain concentration were taken, respectively, diluted with kinase reaction buffer I to a final concentration of 50 μM compound solution; • b. 40 μl of kinase reaction buffer II was added into H2 to H10 of the 96-well plate; and 50 μl of the above solution was added into H1; • c. 10 μl of solution was taken from well H1, added into H2, and mixed well; then 10 μl of the resulting solution was taken and added into H3, and dilution was carried out in sequence to H9, so as to obtain test compound solutions that are diluted by 5-fold sequentially. • 1.2.4 Preparation of a mixed solution of reaction substrate and ATP: • a. Preparation of ATP solution: • 200 μl of 0.1 mM ATP solution: 2 μl of 10 mM ATP was added to 198 μl of kinase reaction buffer I; • 300 μl of 50 μM ATP solution: 150 μl of kinase reaction buffer I was added to 150 μl of the above 0.1 mM ATP solution; • b. Preparation of 300 μl of reaction substrate solution: • 150 μl 1 μg/μl reaction substrate stock solution was added to 150 μl kinase reaction buffer I, and mixed well; • c. The above a/b solutions were mixed to obtain mixed solutions, respectively.
(§6) 1.3 Experimental process: • 1.3.1: 2 μl of compound solutions of various concentrations were taken, added to a 384-well plate, and centrifuged 3 minutes; • 1.3.2: 4 μl of kinase solution was added to each well, centrifuged at 5000 rpm and 18° C. for 10 minutes, and shaken on a plate shaker for 10 minutes; • 1.3.3: 4 μl of mixed solution of substrate and ATP was added to each well, centrifuged at 5000 rpm and 18° C. for 10 minutes, and shaken on a plate shaker at 37° C. for 90 minutes; • 1.3.4: The 384-well plate was taken out, and allowed to stand to room temperature; • 1.3.5: 10 μl of ADP-GLO™ reagent was added to each well, centrifuged at 5000 rpm and 18° C. for 18 minutes, and shaken on a plate shaker at 25° C. for 40 minutes, and then the reaction was stopped; • 1.3.6: 20 μl of kinase detection reagent was added to each well, centrifuged at 5000 rpm and 18° C. for 10 minutes, and shaken on a plate shaker at 25° C. for 30 minutes; and • 1.3.7: M1000pro MICROPLATE READER was used to read […] values.
(§7) The inhibition rate of each compound at each concentration point was calculated by the formula as follows and curve fitting was performed by GraphPad Prism 5 software to obtain the IC50 value.
(In general: ADP-Glo turns the ADP formed in a reaction into a luminescent signal.)

Another assay concerns the target CDK1/CyclinA2 (Homo sapiens (Human), UniProt P06493). Briefly: CDK kinase inhibitory activity, ADP-Glo Kinase Assay, CDK1/CyclinA2. Type of assay: biochemical. The method, then: as §1, §2, §3, §4, §5, §6, §7

For the compound `CCN1CCN(Cc2ccc(Nc3ncc(F)c(-c4cc(F)c5c(c4)C(C)(C)C(C)=N5)n3)nc2)CC1` [Example 2, N-(5-((4-ethylpiperazin-1-yl)methyl)pyridin-2-yl)-5-fluoro-4-(7-fluoro-2,3,3-trimethyl-3H-indol-5-yl)pyrimidine-2-amino], the IC50 against CDK6/CyclinD3 was 159 nM.
For the compound `CCN1CCN(Cc2ccc(Nc3ncc(F)c(-c4cc(F)c5c(c4)C4(CCC4)C(C)=N5)n3)nc2)CC1` [Example 4, N-(5-((4-ethylpiperazin-1-yl)methyl)pyridin-2-yl)-5-fluoro-4-(7′-fluoro-2′-methylspiro[cyclobutane-1,3′-indol]-5′-yl)aminopyrimidine-2-amino], at CDK6/CyclinD3, it took 2150 nM to reach half-maximal inhibition (IC50).
Turning to `CCN1CCN(Cc2ccc(Nc3ncc(F)c(-c4cc(F)c5c(c4)C(C)(CC)C(C)=N5)n3)nc2)CC1` (stereo not drawn) [Example 5, 4-(3-ethyl-7-fluoro-2,3-dimethyl-3H-indol-5-yl)-N-(5-((4-ethylpiperazin-1-yl)methyl)pyridin-2-yl)-5-fluoropyrimidine-2-amino], the results for the half-inhibitory concentration (IC50) at CDK6/CyclinD3 and against CDK1/CyclinA2 were 7.53 nM and 439 nM, respectively. The CDK1/CDK6 on CDK6/CyclinD3 turned out to be 58.23.
Take `CCN1CCN(Cc2ccc(Nc3nccc(-c4cc(F)c5c(c4)C4(CCCC4)C(C)=N5)n3)nc2)CC1` [Example 8, N-(5-((4-ethylpiperazin-1-yl)methyl)pyridin-2-yl)-4-(7′-fluoro-2′-methylspiro [cyclopentane-1,3′-indol]-5′-yl)pyrimidine-2-amino]: 85.8 nM corresponded to half-maximal inhibition on CDK6/CyclinD3 (IC50).
Regarding `CCC1(C)C(C)=Nc2c(F)cc(-c3nc(Nc4ccc(C5CCNCC5)cn4)ncc3F)cc21` (stereo not drawn) [Example 11], on CDK6/CyclinD3, the IC50 is 5.62 nM and the CDK1/CDK6 stood at 19.58.
Consider `CC1=Nc2ccc(-c3nc(Nc4ccc(C5CCNCC5)cn4)ncc3F)cc2C12CCCC2` [Example 15, 5-fluoro-4-(2′-methylspiro[cyclopentane-1,3′-indol]-5′-yl)-N-(5-(piperidin-4-yl)pyridin-2-yl)pyrimidine-2-amino], for which, at CDK6/CyclinD3, the midpoint of inhibition, the IC50, lay at 4.31 nM and the CDK1/CDK6 was 6.25. In addition, 26.9 nM corresponded to half-maximal inhibition against CDK1/CyclinA2 (IC50).
Take `CCN1CCN(c2ccc(Nc3ncc(F)c(-c4cc(F)c5c(c4)C(C)(CC)C(C)=N5)n3)nc2)CC1` (stereo not drawn) [Example 19, 4-(3-ethyl-7-fluoro-2,3-dimethyl-3H-indol-5-yl)-N-(5-(4-ethylpiperazin-1-yl)pyridin-2-yl)-5-fluoropyrimidine-2-amino]: on CDK6/CyclinD3, the half-maximal inhibitory concentration (IC50) came out at 65.5 nM and the CDK1/CDK6 was determined as 0.99.
As for `CCN1CCC(c2ccc(Nc3ncc(F)c(-c4ccc5c(c4)C4(CCCC4)C(C)=N5)n3)nc2)CC1` [Example 21, N-(5-(1-ethylpiperidin-4-yl)pyridin-2-yl)-5-fluoro-4-(2′-methylspiro[cyclopentane-1,3′-indol]-5′-yl)pyrimidine-2-amino], at CDK6/CyclinD3, the IC50 stood at 27.7 nM and the CDK1/CDK6 came out at 4.89. Moreover, the IC50 against CDK1/CyclinA2 came out at 135 nM.
For `CC1=Nc2ccc(-c3nc(Nc4ccc(C5CCN(C)CC5)cn4)ncc3F)cc2C12CCCC2` [Example 23] the same measures were 4.53 nM, 11.10 and 50.3 nM.
`CCN1CCN(c2ccc(Nc3ncc(F)c(-c4cc(F)c5c(c4)C4(CCCC4)C(C)=N5)n3)nc2)CC1` [Example 27, N-(5-(4-ethylpiperazin-1-yl)pyridin-2-yl)-5-fluoro-4-(7′-fluoro-2′-methylspiro [cyclopentane-1,3′-indol]-5′-yl)pyrimidine-2-amino] gave an IC50 against CDK6/CyclinD3 of 16.2 nM.
In the case of `CCC1(CC)C(C)=Nc2c(F)cc(-c3nc(Nc4ccc(N5CCNCC5)cn4)ncc3F)cc21` [Example 29, 4-(3,3-diethyl-7-fluoro-2-methyl-3H-indol-5-yl)-5-fluoro-N-(5-(piperazin-4-yl)pyridin-2-yl)pyrimidine-2-amino], on CDK6/CyclinD3, the concentration for half-maximal inhibition (IC50) was 3.15 nM and the CDK1/CDK6 was 26.20. Also, on CDK1/CyclinA2, the IC50 is 82.4 nM.
Regarding `CC1=Nc2c(F)cc(-c3nc(Nc4ccc(C5CCN(C)CC5)cn4)ncc3F)cc2C1(C)C` [Example 31, 5-Fluoro-4-(7-fluoro-2,3,3-trimethyl-3H-indol-5-yl)-N-(5-(1-methylpiperidin-4-yl)pyridin-2-yl)pyrimidine-2-amino], the IC50 on CDK6/CyclinD3 was 58.8 nM.
Take `CCC1(C)C(C)=Nc2ccc(-c3nc(Nc4ccc(N5CCNCC5)cn4)ncc3F)cc21` (stereo not drawn) [Example 32, 4-(3-ethyl-2,3-dimethyl-3H-indol-5-yl)-5-fluoro-N-(5-(piperazin-1-yl)pyridin-2-yl)pyrimidine-2-amino]: at CDK6/CyclinD3, the IC50 was 10.1 nM and the CDK1/CDK6 is recorded as 14.01.
On to `CCC1(C)C(C)=Nc2ccc(-c3nc(Nc4ccc(C5CCNCC5)cn4)ncc3F)cc21` (stereo not drawn) [Example 33, 4-(3-ethyl-2,3-dimethyl-3H-indol-5-yl)-5-fluoro-N-(5-(piperidin-4-yl)pyridin-2-yl)pyrimidine-2-amino], for which, on CDK6/CyclinD3, the IC50 is 15.6 nM and the CDK1/CDK6 turned out to be 10.65.
As to `CCC1(C)C(C)=Nc2ccc(-c3nc(Nc4ccc(N5CCN(C)CC5)cn4)ncc3F)cc21` (stereo not drawn) [Example 34, 4-(3-ethyl-2,3-dimethyl-3H-indol-5-yl)-5-fluoro-N-(5-(4-methylpiperazin-1-yl)pyridin-2-yl)pyrimidine-2-amino], at CDK6/CyclinD3, the IC50 is 5.13 nM and the CDK1/CDK6 is listed as 21.75.
As for `CCC1(C)C(C)=Nc2ccc(-c3nc(Nc4ccc(C5CCN(C)CC5)cn4)ncc3F)cc21` (stereo not drawn) [Example 35, 4-(3-ethyl-2,3-dimethyl-3H-indol-5-yl)-5-fluoro-N-(5-(1-methylpiperidin-4-yl)-pyridin-2-yl)pyrimidine-2-amino], on CDK6/CyclinD3, the IC50 came out at 8.74 nM and the CDK1/CDK6 was 7.33. At CDK1/CyclinA2, this compound showed an IC50 of 64 nM.
Consider `CCN1CCN(c2ccc(Nc3ncc(F)c(-c4ccc5c(c4)C(C)(CC)C(C)=N5)n3)nc2)CC1` (stereo not drawn) [Example 36, 4-(3-ethyl-2,3-dimethyl-3H-indol-5-yl)-N-(5-(4-ethylpiperazin-1-yl)pyridin-2-yl)-5-fluoropyrimidine-2-amino], for which, on CDK6/CyclinD3, the IC50 was 3.79 nM and the CDK1/CDK6 was 26.65.
For the compound `CC1=Nc2c(F)cc(-c3nc(Nc4ccc(N5CCN(CC6CC6)CC5)cn4)ncc3F)cc2C12CCCC2` [Example 41, N-(5-(4-(cyclopropylmethyl)piperazin-1-yl)pyridin-2-yl)-5-fluoro-4-(7′-fluoro-2′-methylspiro[cyclopentane-1,3′-indol]-5′-yl)pyrimidine-2-amino], the midpoint of inhibition against CDK6/CyclinD3, the IC50, lay at 76.6 nM.
On to `CCC1(C)C(C)=Nc2c(F)cc(-c3nc(Nc4ccc(CN5CCN(C)CC5)cn4)ncc3F)cc21` (stereo not drawn) [Example 42, 4-(3-ethyl-7-fluoro-2,3-dimethyl-3H-indol-5-yl)-5-fluoro-N-(5-((4-methylpiperazin-1-yl)methyl)pyridin-2-yl)pyrimidine-2-amino], for which the IC50 on CDK6/CyclinD3 amounted to 2.33 nM.
At CDK6/CyclinD3, `CC1=Nc2c(F)cc(-c3nc(Nc4ccc(C5CCN(C)CC5)c(C)n4)ncc3F)cc2C12CCCC2` [Example 44, N-(5-(1-methylpiperidin-4-yl)-(6-methylpyridin)-2-yl)-5-fluoro-4-(7′-fluoro-2′-methylspiro[cyclopentane-1,3′-indol]-5′-yl)pyrimidine-2-amino] yielded an IC50 of 37.5 nM.
`CC1=Nc2c(F)cc(-c3nc(Nc4ccc(OC5CCN(C)CC5)cn4)ncc3F)cc2C12CCCC2` [Example 45, N-(5-((1-methylpiperidin-4-yl)oxy)-pyridin-2-yl)-5-fluoro-4-(7′-fluoro-2′-methylspiro[cyclopentane-1,3′-indol]-5′-yl)pyrimidine-2-amino] returned an IC50 against CDK6/CyclinD3 of 43.9 nM.

(Values after patent US11091476B2, “Protein kinase inhibitors, preparation method and medical use thereof” (Gan & Lee Pharmaceuticals, priority 2015, dated 2021).)
